Assay results reported in US9718832B2, “Hexahydrofuropyrroles as PDE1 inhibitors” (H. Lundbeck A/S, priority 2014, dated 2017).

What was measured:
Assay type in all cases: biochemical
Details in all cases: 15 nM tritium labelled cAMP, 1 h at room temperature, SPA beads
[1] = target: PDE1A (Homo sapiens, UniProt P54750); test: PDE1 inhibition assay (PDE1A)
Experimental: (§1) PDE1A, PDE1B and PDE1C assays were performed as follows: the assays was performed in 60 μL samples containing a fixed amount of the PDE1 enzym1 (sufficient to convert 20-25% of the cyclic nucleotide substrate), a buffer (50 mM HEPES pH 7.6; 10 mM MgCl2; 0.02% Tween20), 0.1 mg/ml BSA, 15 nM tritium labelled cAMP and varying amounts of inhibitors. Reactions were initiated by addition of the cyclic nucleotide substrate, and reactions were allowed to proceed for 1 h at room temperature before being terminated through mixing with 20 μL (0.2 mg) yttrium silicate SPA beads (PerkinElmer). The beads were allowed to settle for 1 h in the dark before the plates were counted in a Wallac 1450 Microbeta counter. The measured signals were converted to activity relative to an uninhibited control (100%) and IC50 values were calculated using XIFit (model 205, IDBS).

[2] = target: PDE1B (Homo sapiens, UniProt Q01064); test: PDE1 inhibition assay (PDE1B)
Experimental: as §1

[3] = target: PDE1C (Homo sapiens, UniProt Q14123); test: PDE1 inhibition assay (PDE1C)
Experimental: as §1

Chain of PDE1A (P54750 whole entry): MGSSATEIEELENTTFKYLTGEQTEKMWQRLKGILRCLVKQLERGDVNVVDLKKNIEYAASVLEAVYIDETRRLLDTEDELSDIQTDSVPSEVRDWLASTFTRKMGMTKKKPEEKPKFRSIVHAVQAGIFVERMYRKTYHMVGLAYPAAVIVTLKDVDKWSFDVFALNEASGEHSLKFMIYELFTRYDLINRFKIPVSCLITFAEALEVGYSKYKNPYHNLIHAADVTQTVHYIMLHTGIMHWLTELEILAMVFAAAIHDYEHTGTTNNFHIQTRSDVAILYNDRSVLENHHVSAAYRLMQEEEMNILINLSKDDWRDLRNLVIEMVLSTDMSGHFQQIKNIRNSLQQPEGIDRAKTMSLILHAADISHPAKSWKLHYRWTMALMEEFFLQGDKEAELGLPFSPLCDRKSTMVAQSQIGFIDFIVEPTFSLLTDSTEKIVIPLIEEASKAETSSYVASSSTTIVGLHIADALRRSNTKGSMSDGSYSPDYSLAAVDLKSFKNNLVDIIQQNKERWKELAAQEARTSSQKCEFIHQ
Chain of PDE1C (Q14123 whole entry): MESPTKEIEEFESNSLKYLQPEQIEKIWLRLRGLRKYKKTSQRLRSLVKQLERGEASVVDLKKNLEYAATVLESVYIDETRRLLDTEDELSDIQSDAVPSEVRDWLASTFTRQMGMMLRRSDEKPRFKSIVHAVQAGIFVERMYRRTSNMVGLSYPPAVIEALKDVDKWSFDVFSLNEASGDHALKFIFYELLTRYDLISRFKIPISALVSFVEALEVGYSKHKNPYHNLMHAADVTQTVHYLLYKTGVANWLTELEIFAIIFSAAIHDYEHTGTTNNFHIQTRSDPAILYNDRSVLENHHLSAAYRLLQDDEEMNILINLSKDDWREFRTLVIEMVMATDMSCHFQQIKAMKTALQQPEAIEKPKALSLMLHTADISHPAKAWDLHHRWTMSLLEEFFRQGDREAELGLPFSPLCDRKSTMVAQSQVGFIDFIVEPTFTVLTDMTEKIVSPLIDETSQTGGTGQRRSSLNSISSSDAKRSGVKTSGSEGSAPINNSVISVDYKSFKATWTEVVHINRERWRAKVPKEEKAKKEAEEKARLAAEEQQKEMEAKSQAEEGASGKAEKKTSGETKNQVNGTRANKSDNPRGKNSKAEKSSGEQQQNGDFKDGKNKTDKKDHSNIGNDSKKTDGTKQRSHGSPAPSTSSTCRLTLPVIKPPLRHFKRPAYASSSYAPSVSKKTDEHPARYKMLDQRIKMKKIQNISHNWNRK
Chain of PDE1B (Q01064 whole entry): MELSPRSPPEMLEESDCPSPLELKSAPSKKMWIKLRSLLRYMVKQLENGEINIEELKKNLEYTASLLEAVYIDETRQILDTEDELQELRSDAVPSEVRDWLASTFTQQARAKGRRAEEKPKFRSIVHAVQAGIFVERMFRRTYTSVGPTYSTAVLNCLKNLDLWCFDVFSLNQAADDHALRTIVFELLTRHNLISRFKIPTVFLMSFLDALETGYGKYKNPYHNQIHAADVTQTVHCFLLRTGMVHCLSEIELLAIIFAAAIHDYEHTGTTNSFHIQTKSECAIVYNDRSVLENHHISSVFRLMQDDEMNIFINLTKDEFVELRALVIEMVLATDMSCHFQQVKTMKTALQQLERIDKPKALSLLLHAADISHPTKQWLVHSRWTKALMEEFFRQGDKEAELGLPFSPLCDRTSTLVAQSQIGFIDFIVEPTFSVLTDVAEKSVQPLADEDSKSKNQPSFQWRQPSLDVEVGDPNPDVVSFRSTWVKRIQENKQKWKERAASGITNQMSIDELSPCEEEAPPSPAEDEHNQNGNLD

Row | IC50 [1] | IC50 [2] | IC50 [3] | Compound
1 | 0.16 µM | 0.12 µM | 0.12 µM | COc1ccc2c(N3CC[C@@H]4OCC[C@@H]43)ncnc2c1OC (single isomer, unassigned) [Compound 1]
2 | 3.2 µM | 3.7 µM | 2.8 µM | COc1ccc2c(N3CC[C@H]4OCC[C@H]43)ncnc2c1OC (single isomer, unassigned) [Compound 2]
